Source: patent publication US4248863A, “Antibiotics saframycins A, B, C, D and E and process for producing the same” (priority 1977, dated 1981)
Values after ≈ are worked out from the molar mass of the structure shown. Like-named read-outs stand apart in the source and are kept apart here.

Experiments:
[1] = system: Streptococcus faecalis; test: Antimicrobial spectrum, MIC (Table 4); type: cell-based; conditions: 1% glucose nutrient agar, 37° C., 24 or 48 hours
[2] = system: Escherichia coli; test: Antimicrobial spectrum, MIC (Table 4); type: cell-based; conditions: 1% glucose nutrient agar, 37° C., 24 or 48 hours
[3] = system: Serratia marcescens; test: Antimicrobial spectrum, MIC (Table 4); type: cell-based; conditions: 1% glucose nutrient agar, 37° C., 24 or 48 hours
[4] = system: Staphylococcus citreus; test: Antimicrobial spectrum, MIC (Table 4); type: cell-based; conditions: 1% glucose nutrient agar, 37° C., 24 or 48 hours
[5] = system: Aspergillus niger; test: Antimicrobial spectrum, MIC (Table 4)
[6] = system: Staphylococcus albus; test: Antimicrobial spectrum, MIC (Table 4); type: cell-based; conditions: 1% glucose nutrient agar, 37° C., 24 or 48 hours
[7] = system: Streptococcus pyogenes; test: Antimicrobial spectrum, MIC (Table 4); type: cell-based; conditions: blood agar, 37° C., 24 or 48 hours
[8] = system: Mycobacterium phlei; test: Antimicrobial spectrum, MIC (Table 4); type: cell-based; conditions: 3% glycerol nutrient agar for acid-fast bacteria, 37° C., 24 or 48 hours
[9] = system: Shigella dysenteriae Shiga; test: microbe, parasite or virus in culture; type: cell-based
[10] = system: Corynebacterium dephtheriae; test: Antimicrobial spectrum, MIC (Table 4); type: cell-based; conditions: 1% glucose nutrient agar, 37° C., 24 or 48 hours
[11] = system: Nocardia asteroides; test: Antimicrobial spectrum, MIC (Table 4); type: cell-based; conditions: 37° C., 24 or 48 hours
[12] = system: Corynebacterium xerosis; test: Antimicrobial spectrum, MIC (Table 4); type: cell-based; conditions: 1% glucose nutrient agar, 37° C., 24 or 48 hours
[13] = in vivo; conditions: mouse, ip
[14] = system: Mycobacterium sp. 607; test: Antimicrobial spectrum, MIC (Table 4); type: cell-based; conditions: 3% glycerol nutrient agar for acid-fast bacteria, 37° C., 24 or 48 hours
[15] = system: Staphylococcus salivarius; test: Antimicrobial spectrum, MIC (Table 4); type: cell-based; conditions: 1% glucose nutrient agar, 37° C., 24 or 48 hours
[16] = system: Mucor mucedo; test: Antimicrobial spectrum, MIC (Table 4)
[17] = system: Micrococcus luteus; test: Antimicrobial spectrum, MIC (Table 4); type: cell-based; conditions: 1% glucose nutrient agar, 37° C., 24 or 48 hours
[18] = system: Staphylococcus aureus Smith; test: Antimicrobial spectrum, MIC (Table 4); type: cell-based; conditions: 1% glucose nutrient agar, 37° C., 24 or 48 hours
[19] = system: Klebsiella pneumoniae; test: Antimicrobial spectrum, MIC (Table 4); type: cell-based; conditions: 1% glucose nutrient agar, 37° C., 24 or 48 hours
[20] = system: Penicillium glaucum; test: Antimicrobial spectrum, MIC (Table 4)
[21] = system: Rhodotorula glutinis; test: Antimicrobial spectrum, MIC (Table 4)
[22] = system: Saccharomyces cerevisiae; test: Antimicrobial spectrum, MIC (Table 4)
[23] = system: Staphylococcus aureus 209P; test: Antimicrobial spectrum, MIC (Table 4); type: cell-based; conditions: 1% glucose nutrient agar, 37° C., 24 or 48 hours
[24] = system: Pseudomonas aeruginosa; test: Antimicrobial spectrum, MIC (Table 4); type: cell-based; conditions: 1% glucose nutrient agar, 37° C., 24 or 48 hours
[25] = system: Mycobacterium avium; test: Antimicrobial spectrum, MIC (Table 4); type: cell-based; conditions: 3% glycerol nutrient agar for acid-fast bacteria, 37° C., 24 or 48 hours
[26] = system: Bacillus cereus; test: Antimicrobial spectrum, MIC (Table 4); type: cell-based; conditions: 1% glucose nutrient agar, 37° C., 24 or 48 hours
[27] = system: Candida albicans; test: Antimicrobial spectrum, MIC (Table 4)
[28] = system: Trichophyton mentagrophytes; test: Antimicrobial spectrum, MIC (Table 4)
[29] = system: Bacillus subtilis; test: Antimicrobial spectrum, MIC (Table 4); type: cell-based; conditions: 1% glucose nutrient agar, 37° C., 24 or 48 hours
[30] = system: Brucella abortus; test: microbe, parasite or virus in culture; type: cell-based
[31] = system: Salmonella typhimurium; test: Antimicrobial spectrum, MIC (Table 4); type: cell-based; conditions: 1% glucose nutrient agar, 37° C., 24 or 48 hours
[32] = system: Aspergillus oryzae; test: Antimicrobial spectrum, MIC (Table 4)
[33] = system: Streptococcus pyogenes 090R; test: Antimicrobial spectrum, MIC (Table 4); type: cell-based; conditions: blood agar, 37° C., 24 or 48 hours
[34] = Solubility
[35] = Sabouraud.dextrose.agar, 27° C., 48 hours

For COC1=C(C)C(=O)C2=C(C1=O)C1C3CC4=C(C(=O)C(OC)=C(C)C4=O)C(CNC(=O)C(C)=O)N3CC(C2)N1C (stereo not shown) [saframycin B], the MIC ([1]; Enterococcus faecalis, read-out: MIC) was over 100 µg/mL, the MIC ([2]; Escherichia coli, read-out: MIC) was over 100 µg/mL and the MIC ([3]; Serratia marcescens, read-out: MIC) was over 100 µg/mL. It also gave an MIC ([4]; Staphylococcus, read-out: MIC) of 12.5 µg/mL (≈ 23.3 µM), an MIC ([5]; Aspergillus niger, 48 h) of over 100 µg/mL and an MIC ([6]; Staphylococcus, read-out: MIC) of 12.5 µg/mL (≈ 23.3 µM). For the same compound, the MIC ([7]; Streptococcus pyogenes, read-out: MIC) was 12.5 µg/mL (≈ 23.3 µM), the MIC ([8]; Mycolicibacterium phlei, read-out: MIC) was 50 µg/mL (≈ 93 µM) and the MIC ([9]; Shigella dysenteriae) was over 100 µg/mL. For the same compound, the MIC ([10]; Corynebacterium, read-out: MIC) was 0.4 µg/mL (≈ 0.744 µM), the MIC ([11]; Nocardia asteroides, read-out: MIC) was 50 µg/mL (≈ 93 µM) and the MIC ([12]; Corynebacterium xerosis, read-out: MIC) was 12.5 µg/mL (≈ 23.3 µM). For the same compound, the MTD [13] was 250 mg/kg, the MIC ([14]; Mycobacterium, SP.607, read-out: MIC) was 100 µg/mL (≈ 186 µM) and the MIC ([15]; Staphylococcus, read-out: MIC) was 100 µg/mL (≈ 186 µM). It also gave an MIC ([16]; Mucor mucedo, 48 h) of over 100 µg/mL, an MIC ([17]; Micrococcus luteus, read-out: MIC) of 1.56 µg/mL (≈ 2.9 µM) and an MIC ([18]; Staphylococcus aureus, read-out: MIC) of 1.56 µg/mL (≈ 2.9 µM). It also gave an MIC ([19]; Klebsiella pneumoniae, read-out: MIC) of 12.5 µg/mL (≈ 23.3 µM), an MIC ([20]; Penicillium, 48 h) of over 100 µg/mL and an MIC ([21]; Rhodotorula glutinis, 48 h) of over 100 µg/mL. The MIC ([22]; Saccharomyces cerevisiae, 48 h) was over 100 µg/mL, the MIC ([23]; Staphylococcus aureus, 209P, read-out: MIC) was 12.5 µg/mL (≈ 23.3 µM) and the MIC ([24]; Pseudomonas aeruginosa, read-out: MIC) was over 100 µg/mL. It also gave an MIC ([25]; Mycobacterium avium, read-out: MIC) of 100 µg/mL (≈ 186 µM), an MIC ([26]; Bacillus cereus, read-out: MIC) of 100 µg/mL (≈ 186 µM) and an MIC ([27]; Candida albicans, 48 h) of over 100 µg/mL. The MIC ([28]; Trichophyton mentagrophytes, 72 h) was over 100 µg/mL, the MIC ([29]; Bacillus subtilis, read-out: MIC) was 25 µg/mL (≈ 46.5 µM) and the MIC ([30]; Brucella abortus) was 50 µg/mL (≈ 93 µM). For the same compound, the MIC ([31]; Salmonella enterica, TYPHIMURIUM, read-out: MIC) was over 100 µg/mL, the MIC ([32]; Aspergillus oryzae, 48 h) was over 100 µg/mL and the MIC ([33]; Streptococcus pyogenes, 090R, read-out: MIC) was 25 µg/mL (≈ 46.5 µM).

COC1=C(C)C(=O)C2=C(C1=O)[C@@H]1[C@@H]3CC4=C(C(=O)C(OC)=C(C)C4=O)[C@H](CNC(=O)C(C)=O)N3C[C@H]([C@H]2OC)N1C [saframycin C] gave an MIC [1] of over 100.0 µg/mL, an MIC [2] of over 100.0 µg/mL and an MIC [3] of over 100.0 µg/mL. For the same compound, the MIC [4] was 25.0 µg/mL (≈ 44 µM), the MIC [5, 35] was over 100.0 µg/mL and the MIC [6] was 25.0 µg/mL (≈ 44 µM). It also gave an MIC [7] of 25.0 µg/mL (≈ 44 µM), an MIC [8] of over 100.0 µg/mL and an MIC ([9]; 1% glucose nutrient agar, 37° C., 24 or 48 hours) of over 100.0 µg/mL. The MIC [10] was 3.125 µg/mL (≈ 5.51 µM), the MIC [11] was 50.0 µg/mL (≈ 88.1 µM) and the MIC [12] was 25.0 µg/mL (≈ 44 µM). The MIC [14] was over 100.0 µg/mL, the MIC [15] was over 100.0 µg/mL and the MIC [16, 35] was over 100.0 µg/mL. It also gave an MIC [17] of 6.25 µg/mL (≈ 11 µM), an MIC [18] of 6.25 µg/mL (≈ 11 µM) and an MIC [19] of 50.0 µg/mL (≈ 88.1 µM). The MIC [20, 35] was over 100.0 µg/mL, the MIC [21, 35] was over 100.0 µg/mL and the MIC [22, 35] was over 100.0 µg/mL. For the same compound, the MIC [23] was 25.0 µg/mL (≈ 44 µM), the MIC [24] was over 100.0 µg/mL and the MIC [25] was over 100.0 µg/mL. For the same compound, the MIC [26] was 100.0 µg/mL (≈ 176 µM), the Solubility ([34]; acetone) was “Easily soluble” and the Solubility ([34]; benzene) was “Easily soluble”. For the same compound, the Solubility ([34]; chloroform) was “Easily soluble”, the Solubility ([34]; esters) was “Easily soluble” and the Solubility ([34]; ethyl ether) was “Sparingly soluble”. The Solubility ([34]; lower alcohols) was “Easily soluble”, the Solubility ([34]; n-hexane) was “Insoluble” and the Solubility ([34]; water) was “Insoluble”. It also gave an MIC [27, 35] of over 100.0 µg/mL, an MIC ([28]; Sabouraud.dextrose.agar, 27° C., 72 hours) of over 100.0 µg/mL and an MIC [29] of 25.0 µg/mL (≈ 44 µM). It also gave an MIC ([30]; blood agar, 37° C., 24 or 48 hours) of 50.0 µg/mL (≈ 88.1 µM), an MIC [31] of over 100.0 µg/mL and an MIC [32, 35] of over 100.0 µg/mL. The MIC [33] was 12.5 µg/mL (≈ 22 µM).
